Experimental data reported in patent publication US20240342158A1, “METHOD OF TREATING AND/OR PREVENTING TYPE 1 DIABETES WITH CEPHARANTHINE” (ALBERT EINSTEIN COLLEGE OF MEDICINE, priority 2021, published 2024).

Legend:
[1] = target: recombinant APS3v-HLA-DR3 (Homo sapiens, UniProt P01903+P01911, A100K/A102G/A103R/F55Y/I96L/K41T/P40S/Q125H/Q178H/Q39Y/R42S/S66N/T106N/W38E/Y61H); assay: ELISA inhibition assay of biotinylated peptide binding to recombinant APS3v-HLA-DR3
Procedure: An in vitro binding assay was performed. […] On the day before the immunoassay was performed, a 96-well DELFIA yellow plate (PerkinElmer Life Science) was coated overnight with 20 μg/ml of L243 antibody [Hybridoma was purchased from ATCC, catalogue number HB-55, and IgG was purified by QED Bioscience (San Diego, CA)] in bicarbonate buffer, pH 9.6 (Sigma-Aldrich). L243 is a monoclonal antibody that specifically recognizes the DRa chain of HLA-DR when it is properly folded and complexed with the b chain. The plate was then washed with DELFIA wash buffer (diluted 1:25 from DELFIA wash concentrate, PerkinElmer) to wash off the excess L243 antibody. Blocking was performed using 2.5% BSA in PBS at room temperature for 1 h. After washing 4 times, 100 μl of the pre-incubated mix (containing recombinant APS3v-HLA-DR3 protein, APO, and small molecules) were added onto the plate and shaken at slow speed for 2 h at room temperature. After washing 4 times, DELFIA Europium-labeled streptavidin (PerkinElmer) diluted in DELFIA assay buffer (PerkinElmer) was added for 30 min and shaken at slow speed at room temperature. After washing for 6 times, DELFIA Enhancement Solution was added for 1 h until the optimal signal was reached. Time-resolved fluorescence was measured using the BMG reader (BMG Labtech, Cary, NC). A virtual screen identified 100 small molecules that were predicted to block the unique APS3v-HLA-DR3 pocket. To produce a manageable selection of compounds for validation we clustered the 100 compounds by their simplified molecular input line entry system (SMILES) similarity into 20 clusters. Of the 20 clusters we selected the top scoring members in each cluster. We have enhanced this list to include a total of 11 compounds that blocked APS3v-HLA-DR3, the key HLA-DR3 pocket that triggers APS3v. We tested the selected 11 small molecules identified by the virtual screen in our in vitro ELISA, to test whether the 11 small molecules can block APO peptide (the strongest known peptide binder to HLA-DR3) binding to recombinant APS3v-HLA-DR3. Of the 4 validated small molecules we selected S53 for further testing because it is the only one that has been used in humans before. […] ELISA was performed as previously described.

[2] = system: splenocytes and draining lymph node cells of immunized NOD-DR3 mice; assay: Small molecule inhibition of cytokine production ex vivo (Milliplex); format: cell-based, humanized NOD-DR3 mice
Procedure: Cytokine Assays: Milliplex mouse cytokines/chemokine magnetic panel (Catalog no. MCYTOMAG-70K, EMD Millipore Corporation, Billerica, MA) was used to assay the cytokines, as described in the art. Briefly, splenocytes were plated at 2×10^6 cells per well in 500 μl of medium (RPMI/10% FBS). Supernatants from stimulated lymphocytes were collected 48 h after stimulation with peptides and stored in −80° C. until the assay was performed. The 96-well plate supplied in the kit was washed with the wash buffer supplied and the plate was shaken for 10 min at room temperature. Standards and quality controls were added, followed by the samples. The pre-mixed beads (Interferon gamma and IL-2) were sonicated, vortexed and added to the wells. After shaking the plate overnight at 4° C., the plate was washed twice with wash buffer. Detection antibodies were added for 1 h at room temperature, and Streptavidin-Phycoerythrin was added for 30 min at room temperature. The plate was washed twice and sheath fluid was added to resuspend the beads for 5 min before reading in Luminex 200 with xPONENT software (Luminex, Austin, Texas).
Small Molecule Inhibition of Cytokine Production Ex Vivo: Eight NOD-DR3 mice were immunized with the three thyroidal/islet peptides. Upon sacrifice, splenocytes were incubated with 1 μM of small molecules (S5, S9, S15, S53) together with TPO.758 (20 μg/ml), GAD.492 (20 μg/ml) or Tg.1571 (20 μg/ml) respectively to assess the blockade of these peptides' presentation by the tested small molecules. Supernatants from stimulated lymphocytes were collected 48 h after stimulation with peptides and small molecules, and stored in −80° C. until the cytokine assay was performed. […]

Chain of recombinant APS3v-HLA-DR3 (P01911 30-227 W38E/Q39Y/P40S/K41T/R42S/F55Y/Y61H/S66N/I96L/A100K/A102G/A103R/T106N/Q125H/Q178H): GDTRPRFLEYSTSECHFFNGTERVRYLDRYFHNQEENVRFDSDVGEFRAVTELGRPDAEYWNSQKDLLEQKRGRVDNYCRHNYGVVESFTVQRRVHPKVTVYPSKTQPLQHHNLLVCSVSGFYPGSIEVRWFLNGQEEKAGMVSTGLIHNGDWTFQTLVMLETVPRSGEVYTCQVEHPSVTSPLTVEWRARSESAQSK
Chain of recombinant APS3v-HLA-DR3 (P01903 26-216): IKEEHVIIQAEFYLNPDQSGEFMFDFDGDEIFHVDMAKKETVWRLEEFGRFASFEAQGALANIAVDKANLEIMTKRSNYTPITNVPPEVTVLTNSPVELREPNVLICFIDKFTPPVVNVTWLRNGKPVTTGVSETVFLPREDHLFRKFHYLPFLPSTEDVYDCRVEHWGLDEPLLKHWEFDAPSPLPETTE

## COc1ccc2cc1Oc1ccc(cc1)C[C@H]1c3c(cc4c(c3Oc3cc5c(cc3OC)CCN(C)[C@@H]5C2)OCO4)CCN1C [S53, Cepharanthine]
[1]; ELISA inhibition assay, final concentration 0.4 mM
  inhibition of binding of the 3 peptides (TPO.758, GAD.492, Tg.1571) to the HLA-DR3 pocket: significant inhibition of binding for all 3 peptides
[1]; decreasing doses 0.4 mM, 0.2 mM, 0.1 mM, 0.05 mM
  blocking of binding of biotinylated APO, TPO.758, GAD.492 and Tg.1571 to APS3v-HLA-DR3: blocked the binding of each peptide in a dose-dependent manner
[2]; 1 μM small molecule + Tg.1571 20 μg/ml, 48 h
  IFN-g production in response to Tg.1571: did not significantly reduce
[2]; 1 micromolar, Tg.1571, GAD.492, TPO.758
  inhibition of T-cell activation to all 3 peptides (production of IFNγ and IL-2): consistently inhibited T-cell activation to all 3 peptides
